According to patent US20240350494A1, “THERAPEUTIC MODULATION OF INTEGRINS” (Pliant Therapeutics, Inc., priority 2021, published 2024):
“Also recorded” adds a separate entry of the source.

Experiments:
[1] = SAD/MAD first-in-human pharmacokinetics; format: in vivo; conditions: healthy subjects
Method: Healthy human subjects (N=85) were selected for single ascending dose (SAD) and multiple ascending dose (MAD) first-in-human studies. A solution for oral administration was prepared, containing 10 mg/mL of compound 5 in a 50:50 mixture of ORA-SWEET® SF (PERRIGO®, Allegan, Michigan) and sterile water for irrigation. Sufficient solution was administered orally to the subjects to provide between 15 mg/dose and 75 mg/dose of compound 5 in the SAD study and between 10 mg/dose and 40 mg/dose of compound 5 in the MAD study. Concentrations of compound 5 were measured in the subjects by obtaining a sample of plasma from each subject at desired intervals, and subjecting the plasma to liquid chromatography-mass spectrometry-mass spectrometry (LC-MS/MS), with quantification using a calibration curve determined from a range of solutions at standardized concentrations. The lower limit of quantitation (LLOQ) of the assay was 1 ng/mL and the calibration curve range was 1 to 500 ng/mL.

lung Col1a1 expression = assay: Precision cut lung slices, chronic bleomycin exposure, Col1a1 expression; format: cell-based, mice (C57BL/6); conditions: 7 days culture
Method: (§1) Mice (C57BL/6) were administered 3 U/kg of bleomycin (Teva Pharmaceuticals; North Wales, PA) on Day 0 and 1 U/kg of bleomycin on days 14, 28, 42 and 56 via oropharyngeal aspiration while under anesthesia. At day 70, 14 days after the final bleomycin insult, precision cut lung slices were obtained. Following euthanization, 2% low gelling temp agarose was injected into the mouse lungs via the trachea. […] The lobes were then subjected to precision slicing to obtain samples for culture using a microtome (Compresstome VF-300-OZ, Precisionary; Greenville, NC). Individual slices were distributed in a multiwell culture plate and cultured for 7 days under control (DMSO) and test compound conditions. The viability of the slices over the course of culturing was confirmed by WST-1 assay of mitochondrial activity.
During the culture period, slices in the control group were treated with DMSO and slices in the test group were treated with a DMSO solution of one of: the selective antibody αVβ6 inhibitor 3G9; the αVβ1-selective small molecule inhibitor; a combination of the selective antibody αVβ6 inhibitor 3G9 and the αVβ1-selective small molecule inhibitor; compound 5; and the small molecule ALK5 inhibitor. The selective αVβ1 and αVβ6 integrin inhibitors were analyzed at ≥their respective IC90 concentrations for inhibition of TGF-beta activation. Compound 5 was run at approximate IC50 for inhibition of TGF-beta activation by αVβ6.
as §1, with “following” for “after”
During the culture period, slices in the control group were treated with DMSO and slices in the test group were treated with a DMSO solution of one of: compound 5; nintedanib; pirfenidone; a combination of nintedanib and compound 5; a combination of pirfenidone and compound 5; or the small molecule ALK5 inhibitor. Compound 5 was […] effective to equal or exceed its respective IC50 values at αVβ6 and αVβ1. […] Nintendanib and pirfenidone were analyzed at concentrations 10× their reported therapeutic concentrations.

SMAD3 phosphorylation [2] = assay: pSMAD3/SMAD3 in lung tissue and BALF of healthy mice; format: in vivo; conditions: 4 days of treatment, dose dependent
From the text: (§2) It has been previously shown that inhibition of αVβ6 in the lung can be detected though measurement of phospho-SMAD (pSMAD) in alveolar macrophages. Alveolar macrophages are known to operate in a unique niche in the lung, distinct from interstitial macrophages. SMAD3 is a downstream target of the active TGF-β cytokine binding its receptor and in alveolar macrophages it is phosphorylated by homoeostatic levels of TGF-β. Accordingly, it was desirable to know whether inhibition of TGF-β activation using the disclosed compounds would result in reduced SMAD2 and SMAD3 phosphorylation.
FIG. 2A is a graph of PSMAD3/SMAD3 in lung tissue from healthy mice administered PBS vehicle and varying levels of compound 5 for 4 days. FIG. 2B is a graph of PSMAD3/SMAD3 in BALF drawn from the same healthy mice administered PBS vehicle and varying levels of compound 5 for 4 days.

SMAD3 phosphorylation [3] = assay: Murine bleomycin model, SMAD3 phosphorylation; format: in vivo, mice (C57BL/6); conditions: bleomycin day 0, oral gavage BID 14 days from day 7 at 1×, 5×, FIG. 2C
From the text: as §2
Mice (C57BL/6) were divided into healthy (n=15), vehicle-treated (n=15), and test article-treated (n=15 per dose) groups. Mice in the vehicle and test article-treated groups were administered 3 U/kg of bleomycin (Teva Pharmaceuticals; North Wales, PA) via oropharyngeal aspiration while under anesthesia on day 0. Healthy animals were administered water in a similar fashion. Starting on day 7, mice in the control group were administered PBS vehicle, 130 μL, by oral gavage, BID for 14 days. Also starting on day 7, mice in the test group were administered compound 5 in PBS by oral gavage, BID for 14 days, at relative dosages of 1×, 2.5× and 5×. […] From day 14 through day 21, 9 of the 15 mice were administered ^2H2O for labeling. All mice were sacrificed on day 21 and tissues were collected. […]

[4] = Phase 2a trial in IPF, safety and tolerability; format: in vivo, human
[5] = of the 67 patients treated with Compound 5

SMILES: COCCN(CCCCc1ccc2c(n1)NCCC2)CC[C@H](Nc1ncnc2ccccc12)C(=O)O [Compound 5, (S)-4-((2-methoxyethyl)(4-(5,6,7,8-tetrahydro-1,8-naphthyridin-2-yl)butyl)amino)-2-(quinazolin-4-ylamino)butanoic acid]
- oral bioavailability and pharmacokinetics [1]: good oral bioavailability and pharmacokinetics
- lung Col1a1 expression, normalized to DMSO control slices (lung Col1a1 expression; Compound 5 at approximate IC50 (αVβ6), selective inhibitors at ≥IC90, ALK5 inhibitor at 10× IC50, FIG. 3B): decreased lung Col1a1 expression substantially
- decrease of lung Col1a1 expression compared with combined 3G9 and αVβ1-selective inhibitor (lung Col1a1 expression; FIG. 3B): to a greater extent than combined administration
- lung slice Col1a1 expression compared to DMSO vehicle control slices (lung Col1a1 expression; nintedanib and pirfenidone at 10× therapeutic concentrations, ALK5 inhibitor at 10× IC50, FIG. 4A): substantial, statistically significant (p<0.01 vs vehicle) decrease
- SMAD3 phosphorylation (PSMAD3/SMAD3) in lung tissue (SMAD3 phosphorylation [2]; FIG. 2A): approximately 50 % of the untreated levels
- SMAD3 phosphorylation (PSMAD3/SMAD3) in cells isolated from BALF (SMAD3 phosphorylation [2]; FIG. 2B): approximately 50 % of the untreated levels
- SMAD3 phosphorylation in lung tissue compared to vehicle-treated mice (SMAD3 phosphorylation [3]): substantial, statistically significant dose-dependent reductions
- discontinuations due to adverse events ([4]; 12 weeks, 40-160 mg QD): no discontinuations due to adverse events; also recorded: No premature discontinuations due to AEs; also recorded: no participants discontinued Compound 5 due to TEAE
- most frequent TEAE ([4]; 12 weeks, 40-160 mg QD): diarrhea but only seen in patients on standard of care
- severity of most treatment emergent adverse events (TEAE) ([4]; 12 weeks, 40-160 mg QD): mild or moderate in severity
- treatment related deaths or drug related serious adverse events (SAE) ([4]; 12 weeks, 40-160 mg QD): No treatment related deaths or drug related serious adverse events (SAE) were reported; also recorded: No deaths or drug-related SAEs; also recorded: no treatment-emergent serious adverse events (SAEs) were observed; also recorded: no treatment related SAEs or deaths
- tolerability ([4]; IPF patients, 40, 80, 160 mg once daily, 12 weeks): safe and well tolerated
- patients who completed 12 weeks of treatment, number [4, 5]: 65
- patients who completed 12 weeks of treatment, proportion [4, 5]: 97%
